The record followed here is patent EP0370499A2, “Use of benzomorphanes in cytoprotection” (BOEHRINGER INGELHEIM KG, priority 1988, dated 1990).

The experiment has as its system Hippocampusschnitt. The experiment in a line: Hippocampal slice: epileptic discharges in magnesium-free medium (stimulation of Schaffer collaterals, extracellular recording at CA1 pyramidal cells). Format: cell-based. The settings on record: addition of 100 mmol, Abb. 1c. An excerpt:
Als Testsystem für den Nachweis der zytoprotektiven Eigenschaften der Benzomorphanderivate dient der Hippocampusschnitt. Über Mikroelektroden werden die Schäfferkollaterale des sich in einer Perfusionskammer befindenden Hippocampusschnittes stimuliert und die auftretenden Summenpotentiale extrazellulär an den Pyramidenzellen der CAI-Region abgeleitet [H.L. Haas, B. Schaerer und M. Vosmansky, J. Neuroscience Meth. 1 (1979) 323].
Eine typische Stimulation in einem magnesiumhaltigem Medium ist in Abb. 1a dargestellt. - Abb. 1b zeigt multiple epileptische Entladungen in einem magnesiumfreien Medium. Diese Entladungen werden - wie Abb. 1c belegt - beispielsweise durch Zugabe von […] (-)-(1R,5R,9R)-N-(2-Furylmethyl)-5,9-dimethyl-2′- hydroxy-6,7-benzomorphan gehemmt.

On to `C[C@H]1[C@H]2Cc3ccc(O)cc3[C@]1(C)CCN2Cc1ccco1` [(-)-(1R,5R,9R)-N-(2-Furylmethyl)-5,9-dimethyl-2′-hydroxy-6,7-benzomorphan], for which the “multiple epileptische Entladungen” value is “gehemmt”.
